The results in this text go back to US20150010644A1, “OXYGENATION OF THE MUCOSAL BARRIER BY ENTERAL ARTIFICIAL BLOOD TO PREVENT HYPOXIC BREAKDOWN OF THE MUCOSAL BARRIER” (THE REGENTS OF THE UNIVERSITY OF CALIFORNIA, priority 2011, published 2015).

The test system of experiment [1] is mucin2. Briefly: Western blot for mucin2 of intestine homogenates, rat SAO model. The class given is in vivo. The conditions noted are these: SAO 30 min, lumenal injection 30 min prior. How it is done: (§1) Male Wistar rats (250-300 g, Harlan Sprague Dawley Inc, Indianapolis, Ind.) were randomly assigned to each group (n=4 per group). Rats were kept on solid food restriction for 12 hours prior to surgery with water ad libitum. […] Sham groups were treated the same with the arteries separated but not ligated.
(§2) Perfluorocarbon groups: Perfluorodecalin (PFC) (Sigma-Aldrich, St Louis, Mo.) with oxygen, previously bubbled into the solution for 10 min, was injected into the lumen of the intestine 30 min prior SHAM or SAO surgery (SHAM+PFC+O2, SAO+PFC+O2). PFC without oxygen bubbled into the solution was injected 30 min prior SHAM or SAO surgery (SHAM+PFC, SAO+PFC).
(§3) ATP-MgCl2 groups: ATP-MgCl2 (Sigma-Aldrich), 25 mg/kg BW was injected in the lumen of the intestine 30 min prior to SHAM or SAO surgery (SHAM+ATP, SAO+ATP).
(§4) pH groups: Acidic saline (pH 5.5) injected in the lumen of the intestine 30 min prior SHAM surgery or HEPES buffer (20 mM) injected into the lumen of the intestine 30 min prior to SHAM or SAO surgery.
(§5) Free radicals groups: The hydroxyl radical scavenger, dimethylthiourea (DMTU, Sigma-Aldrich; 2.0 mg/g BW) was injected in the lumen of the intestine 30 min prior to SAO (SAO+DMTU).
(§6) Homogenates of intestine and lumenal contents: Jejunal segments were excised without removal of lumenal contents. For enzyme activity measurements, segments of intestine were homogenized with CelLytic™ (Sigma-Aldrich) without addition of protease inhibitors. For Western blot assays the intestine segments were homogenized as above in the presence of protease inhibitors (5 mM EDTA, 5 mM N-Ethylmaleimide, 25 mM iodoacetamide, 5 mM benzamidine, 300 mM acarbose, 5 mM 6-aminocaproic acid, 1 mM protease inhibitor cocktail, (Sigma-Aldrich). In separate experiments the small intestine of sham animals was excised, and the lumenal contents were flushed with 20 ml saline. Homogenates or lumenal contents were centrifuged (16,000 g for 15 min at 4° C.), the supernatant was collected and protein concentration was assessed with the bicinchoninic acid protein assay (Thermo Scientific).
(§7) Western blot: 20 μg of tissue homogenate were separated by SDS-PAGE. Membranes were incubated with primary antibodies as follows: mucin2, mucin13 and trypsin 1:1000 (Santa Cruz Biotechnology), pancreatic amylase 1:1000 (GeneTex, San Antonio, Tex.), intra- and extra-cellular domains of E-cadherin and TLR4 1:1000 (Abcam), intracellular domain of TLR4 1:1000 (Invitrogen). Secondary antibodies were diluted 1:20000 (Santa Cruz Biotechnology) and detected with Super Signal West Pico (Thermo Scientific). The exposed x-ray films were scanned and label intensity was measured using digital gel analysis (NIH ImageJ software).
Background: A western blot detects proteins with antibodies after separation by electrophoresis.

For a further experiment, the system named is intestinal villi hypoxia. The experiment is described as follows: Hypoxia staining (pimonidazole, Hypoxyprobe-1) of intestinal villi, rat SAO model. The class given is in vivo. The conditions noted are these: SAO 30 min; lumenal injection 30 min prior. How it is done: as §1, §2, §3, §4, §5
Hypoxia staining: In separate experiments tissue hypoxia was detected with Hypoxyprobe™-1 Kit (Natural Pharmacia International, Burlington, Mass., USA). This method utilizes a small molecular marker, pimonidazole, which after intravenous injection forms adducts with thiol containing proteins only in oxygen-starved cells. After general anesthesia as described above, pimonidazole-HCl (6 mg/100 g) was injected intravenously 30 min before SAO or SHAM; at 30 min the animal was euthanized and the jejuna section removed, embedded in O.C.T and frozen in liquid nitrogen. Then cryosections were immunostained using a rabbit antibody that binds to protein adducts of pimonidazole in hypoxic cells.

In experiment [2] the test system is mucin2. Briefly: Mucin2 fluorescent staining of jejunal sections, rat SAO model. Format: in vivo. The conditions noted are these: SAO 30 min, lumenal injection 30 min prior; for villi injury / villus structure: micrographs. How it is done: as §1, §2, §3, §4, §5
(§8) Tissue cryosections: After euthanasia, jejunal sections (˜1 cm in length) were excised without removal of lumenal contents and suspended in Tissue-Tek O.C.T. Compound (Sakura Finetek, Torrance, Calif.), snap frozen in isopentane/liquid nitrogen, and stored at −80° C. for analysis. Cryosections (5 μm thickness) along the longitudinal axis of the villi were used throughout all experiments. Cryosections were fixed in 10% formalin solution and processed in a non-blinded fashion.
(§9) Mucin and lectin staining: The simultaneous visualization of lectins and mucin was carried out using Lectin GS-II from Griffonia simplicifolia, Alexa Fluor® 594 Conjugate (EnzChek®, Invitrogen, Carlsbad, Calif.) and specific antibody for mucin2 with FITC secondary antibody 1:10000 (Santa Cruz Biotechnology) and nuclei counterstaining with DAPI. Sections were observed on an inverted microscope (20× objective) using the appropriate fluorescent filters.

The subject of experiment [3] is lectin staining (carbohydrate portion of mucin). The experiment is described as follows: Lectin fluorescent staining (carbohydrate portion of mucin) of jejunal sections, rat SAO model. The class given is in vivo. The conditions noted are these: SAO 30 min; lumenal injection 30 min prior. How it is done: as §1, §2, §3, §4, §5, §8, §9
In experiment [4] the test system is ATP concentration in intestine homogenates. The experiment is described as follows: ATP assay in intestine homogenates, rat SAO model. Format: in vivo. The conditions noted are these: SAO 30 min; lumenal injection 30 min prior. How it is done:
as §1, §2, §3, §4, §5
ATP assay: ATP concentrations in intestine homogenates were measured using ATP fluorometirc assay kit (BioVision, Mountain View, Calif.) according to manufacturer's protocol. Briefly jejuna sections were homogenized with perchloric acid (BioVision), centrifuged at 15,000×G for 5 min at 4° C. Samples were mixed with ATP reaction mix, incubated for 30 min protected from light and the fluorescence was measured with 535/587 (Ex/Em).

The next experiment relates to mucin13. Briefly: Western blot for mucin13 of intestine homogenates, rat SAO model. Format: in vivo. The conditions noted are these: SAO 30 min, lumenal injection 30 min prior. How it is done: as §1, §2, §3, §4, §5, §6, §7
Experiment [5] concerns trypsin activity in the intestinal wall. Briefly: In-situ zymography for trypsin activity in jejunal cryosections, rat splanchnic arterial occlusion (SAO) model. The class given is in vivo. The conditions noted are these: lumenal injection 30 min prior. How it is done: as §1
Control groups: Animals with saline injection into the lumen of the intestine, 3 ml/100 g Body Weight (BW), 30 min prior to SHAM or SAO surgery.
as §2
ATP-MgCl2 groups: ATP-MgCl2 (Sigma-Aldrich), 25 mg/kg BW was injected in the lumen of the intestine 30 min prior to SHAM or SAO surgery (SHAM+ATP, SAO+ATP). […]
After 30 min SAO or sham surgery, the animals were euthanized (Beuthanasia®; 0.22 ml/kg BW, IV).
as §8
In-situ tissue zymography: In-situ zymography for trypsin activity in cryosections was assessed by measurement of fluorescence resulting from the proteolytic cleavage of the substrate (1 mM, Na-benzoyl-L-arginine-7-amido-methylcoumarin hydrochloride; Sigma-Aldrich) as described elsewhere with propidium iodine counterstaining (Sigma-Aldrich) (9). Slides were observed under an inverted microscope (20× and 60× objectives).

Experiment [6] concerns MDA equivalents (TBARS) in jejunal homogenates. Briefly: Thiobarbituric Acid Reactive Substances (TBARS) assay, rat SAO model. Format: in vivo. As to conditions: SAO 30 min; lumenal injection 30 min prior. How it is done: as §1, §2, §3
pH groups: Acidic saline (pH 5.5) injected in the lumen of the intestine 30 min prior SHAM surgery or HEPES buffer (20 mM) injected into the lumen of the intestine 30 min prior to SHAM or SAO surgery. […]
TBARS assay: Thiobarbituric Acid Reactive Substances (TBARS) was measured using the TBARS assay kit (Zeptometrix, Buffalo, N.Y.) according to manufacturer's protocol. […] Samples were centrifuged at 3000 rpm for 15 min and the supernatant were read at 530/550 (Ex/Em).

A further experiment has as its system ischemic intestine. Briefly: Rat model with severe ischemic intestine (30 min ischemia), enteral oxygen carrier. The conditions noted are these: 7 ml for 230 g rat, saturated for 10 min in oxygen. Format: in vivo. How it is done: The case was illustrated in a model with 30 min ischemia with Perfluorodecalin solution (7 ml for 230 g rat) saturated for 10 min in oxygen.

The subject of the next experiment is E-cadherin. The experiment is described as follows: Western blot of intra- and extracellular domains of E-cadherin in IEC-18 cells. The class given is cell-based. The conditions noted are these: trypsin 50 μM. How it is done:
(§10) To investigate whether mucin provides a barrier against trypsin transport, IEC-18 cells (on Transwell plates) were coated with and without a mucin film (400 μm, 10%, porcine stomach). FITC-dextrans (20 kDa, 5 mg/ml) with and without trypsin (50 μM) was added to the apical side and the rate of FITC accumulation on the basal side over 60 min was measured. To determine if trypsin cleaves the adherent junctions of the epithelium, it was measured by Western blot the levels of intra- and extracellular domains of E-cadherin. […] Thus, mucin protects against trypsin-mediated increases in intestinal epithelial permeability.

For another experiment, the system named is IEC-18 cells. Briefly: FITC-dextran permeability of IEC-18 cells on Transwell plates with and without mucin film. The class given is cell-based. The conditions noted are these: trypsin 50 μM. How it is done: as §10
The mark [7] stands for this setting: listed as deoxygenated perfluorcarbon.

Entries after “also recorded” stand apart in the source; their conditions may differ.

Take `CNC(=S)NC` [DMTU, dimethylthiourea, reference compound]: the “mucin2 protein levels (relative density, Western blot)” value in the experiment on mucin2 [1] was “reduced levels of mucin2; also recorded: reduction in mucin2 protein levels”. Besides, the hypoxia staining levels entry in the experiment with intestinal villi hypoxia is “significantly low levels of hypoxia staining as compared to SAO”. Besides, in the experiment with mucin2 [2], the mucin2 staining levels entry is listed as “no significant change in mucin2 staining levels” and the “villi injury / villus structure” value is reported as “undetectable villi injury”. In addition, the lectin staining levels result in experiment [3] is “lower levels of lectin labeling as compared to SHAM; also recorded: decrease in lectin staining”. For the same compound, the “ATP concentration in intestinal tissue homogenates” value (shortened to “ATP concentration”) in [4] is “lower than SHAM and higher than SAO but it was not statistically significant”. In addition, the “mucin13 protein levels / 17 kDa fragment (Western blot)” value in the experiment with mucin13 was “no appearance of the lower molecular weight band at 17 kDA; also recorded: preservation of mucin13 protein levels”. In [5] (SAO 30 min), the “trypsin activity in the intestinal wall” value was “undetectable levels of trypsin activity; also recorded: reduced trypsin activity in the intestinal wall”.
Consider `O=S(=O)(O)CCN1CCN(CCO)CC1` [HEPES buffer, HEPES], for which, in the experiment with mucin2 [1], the “mucin2 protein levels (relative density, Western blot)” value is “no significant decrease in mucin2 molecule”. Also, the hypoxia staining levels result with intestinal villi hypoxia is “significantly higher than the SHAM and SHAM-HEPES groups as well as the SAO group”. Further, in the experiment with mucin2 [2], the mucin2 staining levels entry was “significantly lower as compared to SHAM, and they were also significantly higher than SAO”; the “villi injury / villus structure” value is “did not have signs of villi injury”. Further, the lectin staining levels entry in experiment [3] is listed as “lower as compared to SHAM”. Further, the “ATP concentration” value in experiment [4] was “significantly higher than SAO and similar to sham groups”. In the experiment with mucin13, the “mucin13 protein levels / 17 kDa fragment (Western blot)” value is “no degradation of mucin13”. The “trypsin activity in the intestinal wall” value in experiment [5] (SAO 30 min) is reported as “Low levels of trypsin activity”. For the same compound, the “trypsin activity in the intestinal wall” value in experiment [5] (SHAM surgery) is “minimal trypsin activity”.
Take `FC1(F)C(F)(F)C(F)(F)C2(F)C(F)(F)C(F)(F)C(F)(F)C(F)(F)C2(F)C1(F)F` (stereo not shown) [deoxygenated perfluorocarbon, Perfluorodecalin, reference compound]: the “mucin2 protein levels (relative density, Western blot)” value in the experiment with mucin2 [1] (setting [7]) is “reduced in the SAO group (SAO+PFC) as compared to sham (SHAM+PFC)”. Also, the hypoxia staining levels result in the experiment on intestinal villi hypoxia was “highest levels of hypoxia staining”. Also, the mucin2 staining levels entry in the experiment on mucin2 [2] is “significantly lower”. In experiment [3], the lectin staining levels result was “significantly lower”. In addition, the “ATP concentration” value in [4] was “significantly decreased”. The “mucin13 protein levels / 17 kDa fragment (Western blot)” value in the experiment with mucin13 (setting [7]) is given as “presented the lower molecular weight fragments at 17 kDa”. Also, the “trypsin activity in the intestinal wall” value is recorded as “High levels of trypsin activity” in experiment [5] (SAO 30 min) and “minimal trypsin activity” in [5] (SHAM surgery).
Take `FC1(F)C(F)(F)C(F)(F)C2(F)C(F)(F)C(F)(F)C(F)(F)C(F)(F)C2(F)C1(F)F` (stereo not shown) [oxygenated perfluorocarbon, Perfluorodecalin]: the “mucin2 protein levels (relative density, Western blot)” value in the experiment with mucin2 [1] was “mucin2 density levels similar to the sham; also recorded: reduces mucin2 and mucin13 degradation”. In the experiment on mucin2 [2], the mucin2 staining levels result was “significantly higher as compared to SAO and SAO-PFC”. In the experiment with mucin2 [2], the “villi injury / villus structure” value is “preserve the villus structure”. Also, the lectin staining levels entry in experiment [3] was “significantly higher as compared to SAO and SAO-PFC”. Besides, the “ATP concentration” value in experiment [4] is listed as “no reduction of ATP concentration”. The “levels of MDA equivalents (TBARS)” value in experiment [6] is reported as “significantly lower as compared to SAO or SAO+PFC”. Moreover, the intestinal damage entry with ischemic intestine is “minimize intestinal damage”. For the same compound, the “mucin13 protein levels / 17 kDa fragment (Western blot)” value with mucin13 was “complete disappearance or very faint levels of the 17 kDa band; also recorded: reduces mucin2 and mucin13 degradation”. Also, the “trypsin activity in the intestinal wall” value in experiment [5] (SAO 30 min) is “prevents the appearance of trypsin activity inside the intestinal wall”; in experiment [5] (SAO 30 min, listed as oxygenated perfluorcarbon), “undetectable levels of trypsin activity”; in [5] (SHAM surgery) it was “minimal trypsin activity”.
With mucin, the E-cadherin cleavage result in the experiment on E-cadherin (mucin film present) is recorded as “cleavage is reduced”. Moreover, the “decrease of epithelial permeability (FITC-dextran 20 kDa accumulation on basal side over 60 min)” value with IEC-18 cells (mucin film present (400 μm, 10%, porcine stomach), p<0.05) was 30%.
trypsin: the E-cadherin cleavage entry with E-cadherin (without a mucin film) was “cleaved”. Besides, the “increase of epithelial permeability (FITC-dextran 20 kDa accumulation on basal side over 60 min)” value in the experiment on IEC-18 cells (without a mucin film) was 42%.
